Results: patent publication US11053219B2, “Substituted pyridines as TYK2 inhibitors” (FronThera U.S. Pharmaceuticals LLC, priority 2018, dated 2021)
Each block holds one compound with its values, some of them ahead of it.

Columns and labels:
[1] = Pharmacokinetic study in cynomolgus monkeys; assay type: in vivo; conditions: cynomolgus monkey, plasma; for Vd: read-out: Vdss
Experimental: (§1) The pharmacokinetics of test compounds were evaluated in male C57BL/6 mice, Sprague Dawley rats, Beagle dogs, and cynomolgus monkeys when administered via oral gavage and IV injection. The animals were fasted overnight before administration. Plasma samples were collected predose and at 0.5, 1, 3, 6, 9, 12, and 24 hours postdose. The samples were analyzed by LC/MS/MS and the concentration of test compound at each timepoint was determined by linear regression. Pharmacokinetic parameters were calculated from the plasma concentrations using Pheonix WinNonlin.

[2] = Pharmacokinetic study in Beagle dogs; assay type: in vivo; conditions: dog, plasma; for Vd: read-out: Vdss
Experimental: as §1

[3] = Pharmacokinetic study in Sprague Dawley rats; assay type: in vivo; conditions: rat, plasma; for Vd: read-out: Vdss
Experimental: as §1

[4] = Pharmacokinetic study in C57BL/6 mice; assay type: in vivo; conditions: male, mouse, plasma
Experimental: as §1

[5] = tested on: IL-2-induced pSTAT5 in human PBMC; test: IL-2-induced pSTAT5 in human PBMC; assay type: cell-based; conditions: IL-2 20 ng/ml
Experimental: (§2) Fresh Human PBMCs were resuspended in RPMI 1640 medium with 10% FBS. Cells were seeded in a round bottom 96-well plate at the concentration of 200,000 cells/well. A 10-point dilution series of test compound (top dose 10 uM, 1:5 dilution) was added to the well using the liquid dispenser (Tecan D300e) and incubated for 1 hour at 37 C. Then human IL-12 recombinant protein (R&D Systems) was added to the well at the final concentration of 10 ng/ml and incubated for 15 minutes at 37 C. Cell lysates were prepared and analyzed by Phospho STAT4 (Tyr693) Kit (Meso Scale Discovery) following manufacturer's protocol.
(§3) For calculation of the inhibition rate, the relative pSTAT4 signal of each well=pSTAT4 signal of each well−the average pSTAT4 signal of baseline. The inhibition %=(the average pSTAT4 signal of IL-12 treatment wells−the relative of pSTAT4 signal in each compound containing well)/the average pSTAT4 signal of IL-12 treatment wells*100%
(§4) The curve was plotted as the inhibition % (y-axis) vs. compounds concentration (x-axis) and was fitted with log(inhibitor) vs. normalized response—Variable slope by GraphPad Prism7.0. Control is BMS-986165:
(§5) Similar to the method for IL-12 induced pSTAT4 in human PBMC described above, these assays were performed to check if test compounds have cross-activity to JAK1. JAK2 and JAK3 pathways in human PBMC. The procedure is as described with change of stimuli to 10 ng/ml of GM-CSF or 20 ng/ml of IL-2.

[6] = tested on: GM-CSF-induced pSTAT5 in human PBMC; test: GM-CSF-induced pSTAT5 in human PBMC; assay type: cell-based; conditions: GM-CSF 10 ng/ml
Experimental: as §2, §3, §4, §5

[7] = tested on: INFα induced pSTAT5 in human PBMC; test: INFα induced pSTAT5 in human PBMC; assay type: cell-based; conditions: human PBMC, INFα 5000 units/ml; read-out: p-STAT5 IC50
TYK2 (JH2 domain) = TYK2 (JH2 domain) (Homo sapiens (Human), UniProt P29597); test: TYK2 JH2 domain binding assay (DiscoverX KINOMEscan); conditions: 11-point 3-fold dilution, duplicate
Chain of TYK2 (JH2 domain) (P29597 589-875): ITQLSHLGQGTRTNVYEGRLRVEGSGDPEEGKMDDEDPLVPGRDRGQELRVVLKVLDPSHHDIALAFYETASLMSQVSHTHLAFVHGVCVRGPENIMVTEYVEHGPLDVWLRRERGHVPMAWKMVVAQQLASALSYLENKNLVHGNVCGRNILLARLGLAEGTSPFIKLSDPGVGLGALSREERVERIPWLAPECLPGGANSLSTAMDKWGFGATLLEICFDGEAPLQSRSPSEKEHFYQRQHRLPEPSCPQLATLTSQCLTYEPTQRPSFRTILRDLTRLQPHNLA

JAK1 (JH2 domain) = JAK1 (JH2 domain) (Homo sapiens (Human), UniProt P23458); test: JAK1 JH2 domain binding assay (KINOMEscan); conditions: KINOMEscan; read-out: JAK1 (JH2 domain) binding Kd
Chain of JAK1 (JH2 domain) (P23458 583-855): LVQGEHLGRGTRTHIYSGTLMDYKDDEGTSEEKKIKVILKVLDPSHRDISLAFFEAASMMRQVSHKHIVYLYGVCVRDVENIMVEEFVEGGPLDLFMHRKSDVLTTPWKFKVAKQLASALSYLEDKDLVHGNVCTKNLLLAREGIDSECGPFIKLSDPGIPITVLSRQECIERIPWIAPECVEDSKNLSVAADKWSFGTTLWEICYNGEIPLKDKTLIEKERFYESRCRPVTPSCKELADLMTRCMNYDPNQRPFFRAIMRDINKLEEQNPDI

JAK2 (JH1 domain) = JAK2 (JH1 domain) (Homo sapiens (Human), UniProt O60674); test: JAK2 JH1 domain binding assay (KINOMEscan)
Chain of JAK2 (JH1 domain) (O60674 849-1124): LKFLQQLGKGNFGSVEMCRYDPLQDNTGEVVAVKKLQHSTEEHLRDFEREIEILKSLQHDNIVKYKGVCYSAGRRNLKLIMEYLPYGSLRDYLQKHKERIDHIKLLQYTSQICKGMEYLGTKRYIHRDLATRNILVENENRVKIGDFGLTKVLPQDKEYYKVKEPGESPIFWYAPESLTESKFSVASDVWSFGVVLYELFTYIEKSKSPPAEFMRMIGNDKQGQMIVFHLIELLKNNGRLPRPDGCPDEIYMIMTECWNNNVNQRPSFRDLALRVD

[8] = Oral (2 mg/kg), NA: no detectable
[9] = Oral (2 mg/kg), NA: no detectable, read-out: C0 or Cmax (Cmax)
[10] = iv, I.V. (1 mg/kg), read-out: C0 or Cmax (C0)
[11] = Oral (2 mg/kg), read-out: C0 or Cmax (Cmax)
[12] = Oral (5 mg/kg), read-out: C0 or Cmax (Cmax)

SMILES: [2H]C([2H])([2H])CC(=O)c1cnc(NC(=O)C2CC2)cc1Nc1cccc(-c2ncn(C([2H])([2H])[2H])n2)c1OC [Example 195]
AUC [1, 8]: 5420 ± 3250 ng·h/mL
Tmax [1, 8]: 4 h
bioavailability [1, 8]: 16.6 ± 9.95%
half-life [1, 8]: 348 ± 43.8 min
Cmax [1, 9]: 663 ± 497 ng/mL
AUC ([1]; iv, I.V. (1 mg/kg)): 16300 ± 664 ng·h/mL
clearance ([1]; iv, I.V. (1 mg/kg)): 0.898 ± 0.04 mL/min/kg
half-life ([1]; iv, I.V. (1 mg/kg)): 459 ± 33.6 min
Cmax [1, 10]: 1290 ± 106 ng/mL
Vd ([1]; iv, I.V. (1 mg/kg)): 0.624 ± 0.03 L/kg
AUC ([2]; Oral (2 mg/kg)): 1520 ± 1330 ng·h/mL
Tmax ([2]; Oral (2 mg/kg)): 1.33 ± 0.58 h
bioavailability ([2]; Oral (2 mg/kg)): 26.2 ± 23%
half-life ([2]; Oral (2 mg/kg)): 344 ± 121 min
Cmax [2, 11]: 285 ± 285 ng/mL
AUC ([2]; iv, I.V. (1 mg/kg)): 2900 ± 453 ng·h/mL
clearance ([2]; iv, I.V. (1 mg/kg)): 5.31 ± 0.93 mL/min/kg
half-life ([2]; iv, I.V. (1 mg/kg)): 401 ± 23.4 min
Cmax [2, 10]: 185 ± 8.4 ng/mL
Vd ([2]; iv, I.V. (1 mg/kg)): 3.04 ± 0.27 L/kg
AUC ([3]; Oral (5 mg/kg)): 7440 ± 1400 ng·h/mL
Tmax ([3]; Oral (5 mg/kg)): 1.67 ± 0.58 h
bioavailability ([3]; Oral (5 mg/kg)): 46.7 ± 8.8%
half-life ([3]; Oral (5 mg/kg)): 142 ± 19.2 min
Cmax [3, 12]: 1260 ± 226 ng/mL
AUC ([3]; iv, I.V. (1 mg/kg)): 3190 ± 603 ng·h/mL
clearance ([3]; iv, I.V. (1 mg/kg)): 4.96 ± 0.91 mL/min/kg
half-life ([3]; iv, I.V. (1 mg/kg)): 128 ± 7.2 min
Cmax [3, 10]: 2150 ± 123 ng/mL
Vd ([3]; iv, I.V. (1 mg/kg)): 0.824 ± 0.11 L/kg
Tmax ([4]; Oral (10 mg/kg)): 30 min
bioavailability ([4]; Oral (10 mg/kg)): 41.7%
half-life ([4]; Oral (10 mg/kg)): 127 min
Cmax ([4]; Oral (10 mg/kg), read-out: C0 or Cmax (Cmax)): 4300 ng/mL
clearance ([4]; iv, I.V. (2 mg/kg)): 4.16 mL/min/kg
half-life ([4]; iv, I.V. (2 mg/kg)): 148 min
Cmax ([4]; iv, I.V. (2 mg/kg), read-out: C0 or Cmax (C0)): 2950 ng/mL
Vd ([4]; iv, I.V. (2 mg/kg), read-out: Vdss): 0.688 L/kg
IC50 [5]: 1000 to 10000 nM
IC50 [6]: 1 to 10 µM
IC50 [7]: < 100 nM

AUC [1, 8]: 1230 ± 435 ng·h/mL
Tmax [1, 8]: 4 h
bioavailability [1, 8]: 59.4 ± 21.1%
half-life [1, 8]: 76.8 ± 10.8 min
Cmax [1, 9]: 246 ± 124 ng/mL
AUC ([1]; iv, I.V. (1 mg/kg)): 1030 ± 159 ng·h/mL
clearance ([1]; iv, I.V. (1 mg/kg)): 16.1 ± 2.4 mL/min/kg
half-life ([1]; iv, I.V. (1 mg/kg)): 87 ± 13.2 min
Cmax [1, 10]: 667 ± 82 ng/mL
Vd ([1]; iv, I.V. (1 mg/kg)): 1.94 ± 0.03 L/kg
AUC ([2]; Oral (2 mg/kg)): 253 ± 48 ng·h/mL
Tmax ([2]; Oral (2 mg/kg)): 1.67 ± 0.58 h
bioavailability ([2]; Oral (2 mg/kg)): 54 ± 10%
half-life ([2]; Oral (2 mg/kg)): 85.2 ± 14.4 min
Cmax [2, 11]: 68.8 ± 18 ng/mL
AUC ([2]; iv, I.V. (1 mg/kg)): 234 ± 94 ng·h/mL
clearance ([2]; iv, I.V. (1 mg/kg)): 68.6 ± 28 mL/min/kg
half-life ([2]; iv, I.V. (1 mg/kg)): 257 ± 75 min
Cmax [2, 10]: 182 ± 47.6 ng/mL
Vd ([2]; iv, I.V. (1 mg/kg)): 23.1 ± 4.59 L/kg
AUC ([3]; Oral (5 mg/kg)): 1190 ± 53 ng·h/mL
Tmax ([3]; Oral (5 mg/kg)): 1 ± 0.87 h
bioavailability ([3]; Oral (5 mg/kg)): 16.9 ± 0.76%
half-life ([3]; Oral (5 mg/kg)): 171 ± 168 min
Cmax [3, 12]: 261 ± 35 ng/mL
AUC ([3]; iv, I.V. (1 mg/kg)): 1400 ± 29 ng·h/mL
clearance ([3]; iv, I.V. (1 mg/kg)): 11.8 ± 0.22 mL/min/kg
half-life ([3]; iv, I.V. (1 mg/kg)): 73.2 ± 7.2 min
Cmax [3, 10]: 1200 ± 70 ng/mL
Vd ([3]; iv, I.V. (1 mg/kg)): 1.1 ± 0.065 L/kg
Kd (TYK2 (JH2 domain)): ≤ 1 nM
Kd (JAK1 (JH2 domain)): < 100 nM
Kd (JAK2 (JH1 domain)): > 10 µM
SMILES: [2H]C([2H])([2H])CC(=O)c1cnc(Nc2cccc(C#N)n2)cc1Nc1cccc(-c2ncn(C([2H])([2H])[2H])n2)c1OC [Example 198]
IC50 [5]: 100 to 1000 nM
IC50 [6]: 1 to 10 µM
IC50 [7]: < 100 nM

AUC ([2]; Oral (2 mg/kg)): 67.6 ± 25 ng·h/mL
Tmax ([2]; Oral (2 mg/kg)): 1.33 ± 0.6 h
bioavailability ([2]; Oral (2 mg/kg)): 10.7 ± 3.9%
half-life ([2]; Oral (2 mg/kg)): 81.6 ± 3 min
Cmax [2, 11]: 23.4 ± 4 ng/mL
AUC ([2]; iv, I.V. (1 mg/kg)): 315 ± 188 ng·h/mL
clearance ([2]; iv, I.V. (1 mg/kg)): 63.2 ± 30 mL/min/kg
half-life ([2]; iv, I.V. (1 mg/kg)): 107 ± 35.4 min
Cmax [2, 10]: 334 ± 96 ng/mL
Vd ([2]; iv, I.V. (1 mg/kg)): 5.62 ± 1.13 L/kg
AUC ([3]; Oral (5 mg/kg)): 650 ± 34 ng·h/mL
Tmax ([3]; Oral (5 mg/kg)): 1.33 ± 0.58 h
bioavailability ([3]; Oral (5 mg/kg)): 18.4 ± 1%
half-life ([3]; Oral (5 mg/kg)): 99.6 ± 22.2 min
Cmax [3, 12]: 140 ± 32 ng/mL
AUC ([3]; iv, I.V. (1 mg/kg)): 705 ± 140 ng·h/mL
clearance ([3]; iv, I.V. (1 mg/kg)): 23.3 ± 4.9 mL/min/kg
half-life ([3]; iv, I.V. (1 mg/kg)): 104 ± 12 min
Cmax [3, 10]: 414 ± 56 ng/mL
Vd ([3]; iv, I.V. (1 mg/kg)): 3.27 ± 0.87 L/kg
Kd (TYK2 (JH2 domain)): ≤ 1 nM
Kd (JAK1 (JH2 domain)): < 100 nM
Kd (JAK2 (JH1 domain)): > 10 µM
SMILES: [2H]C([2H])([2H])CC(=O)c1cnc(Nc2cccc(C#N)n2)cc1Nc1nccc(-c2ncn(C([2H])([2H])[2H])n2)c1OC [Example 199]
IC50 [5]: 100 to 1000 nM
IC50 [6]: 1 to 10 µM
IC50 [7]: < 100 nM

SMILES: [2H]C([2H])([2H])CC(=O)c1cnc(Nc2ccc(C(O)(C([2H])([2H])[2H])C([2H])([2H])[2H])c(F)n2)cc1Nc1ncccc1S(C)(=O)=O [Example 203]
AUC ([1]; iv, I.V. (1 mg/kg)): 595 ± 48 ng·h/mL
clearance ([1]; iv, I.V. (1 mg/kg)): 27.6 ± 1.9 mL/min/kg
half-life ([1]; iv, I.V. (1 mg/kg)): 57.1 ± 13.2 min
Cmax [1, 10]: 787 ± 61 ng/mL
Vd ([1]; iv, I.V. (1 mg/kg)): 0.931 ± 0.01 L/kg
IC50 [5]: 100 to 1000 nM
IC50 [6]: 1 to 10 µM
IC50 [7]: < 100 nM
